Results reported in US7863307B2, “Process for synthesizing a CETP inhibitor” (priority 2005, dated 2011).
Entries after “also recorded” stand apart in the source; their conditions may differ.

How the values were obtained:
Type in all cases: physicochemical
[1] = hygroscopicity of the crystalline non-solvate form in humid or dry air
[2] = solubility in water / aqueous environments
[3] = solid-form stability on standing (conversion to other forms); details: crystalline non-solvate form

In the case of COc1cc(F)c(C(C)C)cc1-c1ccc(C(F)(F)F)cc1CN1C(=O)O[C@H](c2cc(C(F)(F)F)cc(C(F)(F)F)c2)[C@@H]1C [compound 12, (4S,5R)-5-[3,5-bis(trifluoromethyl)phenyl]-3-{[4′-fluoro-5′-isopropyl-2′-methoxy-4-(trifluoromethyl)biphenyl-2-yl]methyl}-4-methyl-1,3-oxazolidin-2-one], the hydrate formation [1] is reported as “does not convert to a hydrate in humid or dry air”, the hygroscopicity [1] is reported as “non-hygroscopic” and the solubility in water [2] is reported as “very poorly soluble in water”. The “conversion of crystal form on standing” value ([3]; elevated temperatures) was “converts more rapidly to the amorphous form at elevated temperatures” and the “conversion of crystal form on standing” value ([3]; room temperature) was “slowly converts to the amorphous form on standing for long periods of time; also recorded: stable at room temperature for moderate periods of time with respect to changing to the amorphous form”.
